Patent US5561119A, “Glycosylated prodrugs, their method of preparation and their uses” (Laboratoires Hoechst, priority 1991, dated 1996)
Values after ≈ are worked out from the molar mass of the structure shown. Each block holds one compound with its values, some of them ahead of it.

Experiments:
[1] = incubation of 60 with α-galactosidase from unroasted coffee beans (HPLC); type: biochemical, [550, 560, 561]; details: pH 6.8 (0.02M phosphate buffer), 37° C., 0.04 U/ml enzyme, 60 at 660 μg/ml
[2] = Proliferation test (MTT reduction) in L1210 tumoral cells; type: cell-based, [569, 570, 571, 572, 573, 575]; details: 72 hours, 37° C.
[3] = hydrolysis of acetates in vivo; details: 6, 13 and 48a to 7, 14 and 48b respectively
[4] = hydrolysis of 48b by α-galactosidase (HPLC); type: biochemical, [550, 552, 554]; details: placental alpha-galactosidase; α-galactosidase from human placenta, 0.075M N-acetylgalactosamine, 37° C., pH 5 (0.02M phosphate buffer); read-out: half-life of hydrolysis of the glycoside (converted)
stability in plasma = type: in vitro ADME
[5] = cleavability of glycosylated prodrugs by recombinant β-glucuronidase (reversed-phase HPLC); details: for half-life: beta-glucuronidase; for t1/2 arm: time for conversion of 50% of the anthracycline/arm compound to active anthracycline, 37° C., 1 U/ml, pH 7.2 to 6.8
[6] = cleavability of glycosylated prodrugs by α-galactosidase from coffee beans (reversed-phase HPLC); type: biochemical, [595, 596, 597]; details: 37° C., 1 U/ml, pH 7.2 to 6.8
[7] = beta-glucuronidase

SMILES: COc1cccc2c1C(=O)c1c(O)c3c(c(O)c1C2=O)C[C@@](O)(C(C)=O)C[C@@H]3O[C@H]1C[C@H](NC(=O)OCc2ccc(O)c(Cl)c2)[C@H](O)[C@H](C)O1 [deglycosidated derivative 60]
detection of the deglycosidated derivative [1]: not detected because of its high rate of disappearance

IC50 [2]: > 1 µg/mL
hydrolysis in vivo to the deacetylated prodrug [3]: hydrolyzed in vivo
SMILES: COc1cccc2c1C(=O)c1c(O)c3c(c(O)c1C2=O)C[C@@](O)(C(C)=O)C[C@@H]3O[C@H]1C[C@H](NC(=O)OCc2ccc(O[C@H]3O[C@H](COC(C)=O)[C@H](OC(C)=O)[C@H](OC(C)=O)[C@H]3OC(C)=O)cc2)[C@H](O)[C@H](C)O1 [derivative 6, N-[4-(2,3,4,6-Tetra-O-acetyl-α-D-galactopyranosyl)benzyloxycarbonyl]daunorubicin]

IC50 [2]: > 1 µg/mL
SMILES: COc1cccc2c1C(=O)c1c(O)c3c(c(O)c1C2=O)C[C@@](O)(C(C)=O)C[C@@H]3O[C@H]1C[C@H](NC(=O)OCc2ccc(O[C@H]3O[C@H](CO)[C@H](O)[C@H](O)[C@H]3O)cc2)[C@H](O)[C@H](C)O1 [derivative 7, N-[4-(α-D-Galactopyranosyl)benzyloxycarbonyl]daunorubicin]

IC50 [2]: > 1 µg/mL
hydrolysis in vivo to the deacetylated prodrug [3]: hydrolyzed in vivo
SMILES: COc1cccc2c1C(=O)c1c(O)c3c(c(O)c1C2=O)C[C@@](O)(C(C)=O)C[C@@H]3O[C@H]1C[C@H](NC(=O)OCc2ccccc2O[C@H]2O[C@H](COC(C)=O)[C@H](OC(C)=O)[C@H](OC(C)=O)[C@H]2OC(C)=O)[C@H](O)[C@H](C)O1 [derivative 13, N-[2-(2,3,4,6-Tetra-O-acetyl-α-D-galactopyranosyl)benzyloxycarbonyl]daunorubicin]

IC50 [2]: > 1 µg/mL
SMILES: COc1cccc2c1C(=O)c1c(O)c3c(c(O)c1C2=O)C[C@@](O)(C(C)=O)C[C@@H]3O[C@H]1C[C@H](NC(=O)OCc2ccccc2O[C@H]2O[C@H](CO)[C@H](O)[C@H](O)[C@H]2O)[C@H](O)[C@H](C)O1 [derivative 14, N-[2-(α-D-Galactopyranosyl)benzyloxycarbonyl]daunorubicin]

IC50 [2]: > 10 µg/mL
SMILES: COc1cccc2c1C(=O)c1c(O)c3c(c(O)c1C2=O)C[C@@](O)(C(C)=O)C[C@@H]3O[C@H]1C[C@H](NC(=O)OCc2ccc(O[C@@H]3O[C@H](C(=O)O)[C@@H](O)[C@H](O)[C@H]3O)cc2)[C@H](O)[C@H](C)O1 [derivative 22, N-(4-Hydroxybenzyloxycarbonyl)daunorubicin β-D-glucuronide]

IC50 [2]: > 1 µg/mL
SMILES: COc1cccc2c1C(=O)c1c(O)c3c(c(O)c1C2=O)C[C@@](O)(C(C)=O)C[C@@H]3O[C@H]1C[C@H](NC(=O)OCc2ccccc2O[C@@H]2O[C@H](C(=O)O)[C@@H](O)[C@H](O)[C@H]2O)[C@H](O)[C@H](C)O1 [derivative 27c, N-[2-((β-D-Glucopyranosyl)uronic acid)benzyloxycarbonyl]daunorubicin]

IC50 [2]: > 10 µg/mL
hydrolysis in vivo to the deacetylated prodrug [3]: hydrolyzed in vivo
SMILES: COc1cccc2c1C(=O)c1c(O)c3c(c(O)c1C2=O)C[C@@](O)(C(C)=O)C[C@@H]3O[C@H]1C[C@H](NC(=O)OCc2cc([N+](=O)[O-])ccc2O[C@H]2O[C@H](COC(C)=O)[C@H](OC(C)=O)[C@H](OC(C)=O)[C@H]2OC(C)=O)[C@H](O)[C@H](C)O1 [derivative 48a, N-[2-(2,3,4,6-Tetra-O-acetyl-α-D-galactopyranosyl)-5-nitrobenzyloxycarbonyl]daunorubicin]

IC50 [2]: > 1 µg/mL
half-life [4]: 60 min
stability in plasma (stability in plasma): stable in plasma
SMILES: COc1cccc2c1C(=O)c1c(O)c3c(c(O)c1C2=O)C[C@@](O)(C(C)=O)C[C@@H]3O[C@H]1C[C@H](NC(=O)OCc2cc([N+](=O)[O-])ccc2O[C@H]2O[C@H](CO)[C@H](O)[C@H](O)[C@H]2O)[C@H](O)[C@H](C)O1 [derivative 48b, N-[2-(α-D-Galactopyranosyl)-5-nitrobenzyloxycarbonyl]daunorubicin]

SMILES: COc1cccc2c1C(=O)c1c(O)c3c(c(O)c1C2=O)C[C@@](O)(C(C)=O)C[C@@H]3O[C@H]1C[C@H](NC(=O)OCc2cc([N+](=O)[O-])ccc2O[C@@H]2O[C@H](C(=O)O)[C@@H](O)[C@H](O)[C@H]2O)[C@H](O)[C@H](C)O1 [derivative 54c, N-[2-((β-D-Glucopyranosyl)uronic acid)-5-nitrobenzyloxycarbonyl]daunorubicin]
half-life [5]: 41.4 min
t1/2 arm [5]: 5,30 h

half-life ([6]; alpha-galactosidase, time for cleavage of 50% of the glycoside, read-out: t1/2 cleavage of the glycoside (converted)): 1.2 min
t1/2 arm ([6]; time for conversion of 50% of the anthracycline/arm compound to active anthracycline): < 0,08 h
SMILES: COc1cccc2c1C(=O)c1c(O)c3c(c(O)c1C2=O)C[C@@](O)(C(C)=O)C[C@@H]3O[C@H]1C[C@H](NC(=O)OCc2ccc(O[C@H]3O[C@H](CO)[C@H](O)[C@H](O)[C@H]3O)c(Cl)c2)[C@H](O)[C@H](C)O1 [derivative 60, N-[3-Chloro-4-(α-D-galactopyranosyl)benzyloxycarbonyl]daunorubicin]

half-life [5]: 25.2 min
t1/2 arm [5]: < 0,08 h
SMILES: COc1cccc2c1C(=O)c1c(O)c3c(c(O)c1C2=O)C[C@@](O)(C(C)=O)C[C@@H]3O[C@H]1C[C@H](NC(=O)OCc2ccc(O[C@@H]3O[C@H](C(=O)O)[C@@H](O)[C@H](O)[C@H]3O)c([N+](=O)[O-])c2)[C@H](O)[C@H](C)O1 [derivative 64c, N-(4-Hydroxy-3-nitrobenzyloxycarbonyl)daunorubicin β-D-glucuronide]

half-life [5]: 113 min
t1/2 arm [5]: 0,75 h
SMILES: COc1cc(O[C@@H]2O[C@H](C(=O)O)[C@@H](O)[C@H](O)[C@H]2O)c(COC(=O)N[C@H]2C[C@H](O[C@H]3C[C@](O)(C(C)=O)Cc4c(O)c5c(c(O)c43)C(=O)c3c(OC)cccc3C5=O)O[C@@H](C)[C@H]2O)cc1[N+](=O)[O-] [derivative 68c, N-[4-Methoxy-5-nitro-2-((β-D-glucopyranosyl)uronic acid)benzyloxycarbonyl]daunorubicin]

t1/2 cleavage of the glycoside [7]: 0,92 h
SMILES: COc1cccc2c1C(=O)c1c(O)c3c(c(O)c1C2=O)CC(O)(C(=O)CO)CC3OC1CC(NC(=O)OCc2ccc(OC3OC(C(=O)O)C(O)C(O)C3O)c([N+](=O)[O-])c2)C(O)C(C)O1 [derivative 70c, N-[4-hydroxy-3-nitro-benzyloxy-carbonyl) doxorubicin β-D-glucuronide]

SMILES: COc1cccc2c1C(=O)c1c(O)c3c(c(O)c1C2=O)C[C@@](O)(C(C)=O)C[C@@H]3O[C@H]1C[C@H](NC(=O)OCc2cc(Cl)ccc2O[C@@H]2O[C@H](C(=O)O)[C@@H](O)[C@H](O)[C@H]2O)[C@H](O)[C@H](C)O1 [derivative 82c, N-[2-((β-D-glucopyranosyl)uronic acid)-5-chlorobenzyloxycarbonyl]daunorubicin]
half-life [5]: 244 min
t1/2 arm [5]: 12,00 h

SMILES: COc1cccc2c1C(=O)c1c(O)c3c(c(O)c1C2=O)C[C@@](O)(C(=O)CO)C[C@@H]3O[C@H]1C[C@H](N)[C@H](O)[C@H](C)O1 [doxorubicin, reference compound]
IC50 [2]: 0.02 µg/mL (≈ 0.0368 µM)
